# Key:
# Format in all cases: in vivo, mice
# [1] = tested on: PHTX02B breast xenograft model; experiment: Combination of docetaxel and MLN4924 in PHTX02B xenograft model; settings: for average tumor volume day 21: PHTX02B xenograft
# Excerpt: The PHTX02B breast xenograft model was established from a patient-derived tumor collected during surgery from a person with invasive ductal carcinoma classified as triple negative breast cancer (ER−/PR−/Her2−) by IHC. PHTX02B tumor fragments (approximately 2×2×3 mm^3) are implanted into the subcutaneous space in the right dorsal flank of female SCID-NOD mice (age 5-7 weeks, Jackson Laboratory, Bar Harbor, Me.) using a 13-gauge trocar.
# (§1) Docetaxel (Henry Schein, Inc., Pittsburgh Pa., Qilu Pharmaceutical Co., Ltd., Jinan, Shandong, China, and Sanofi-Aventis) is formulated in 0.9% saline and administered by intravenous injection (IV) once weekly (QW) at 5 mg/kg or 10 mg/kg.
# (§2) Tumors are measured twice weekly using a vernier caliper. Tumor volumes are calculated using standard procedures (0.5×(length×width^2)). […] Tumor size and body weight are measured approximately twice a week for the duration of the study. Mice are euthanized when their tumor volume reached 10% of their body weight, or when the average tumor volume of a treatment or control group reached approximately 2000 mm^3. Tumor growth continued to be monitored after the dosing period in some studies. Average tumor volume is reported as a function of time for selected groups of selected studies in Figures A, B, and C.
# (§3) Measurements from day 0 to 18, 21 or 22 are analyzed as specified in Tables 4-9. All tumor volumes have a value of 1 added to them before log10 transformation. For each animal, the log tumor volume at day 0 is subtracted from the log tumor volume on the subsequent days. This difference vs. time is used to calculate an area under the curve (AUC) for each animal using the trapezoid rule. […] The synergy score for the combination of agents A and B is defined as 100*(mean(AUCAB)−mean(AUCA)−mean(AUCB)+mean(AUCctl))/mean(AUCctl): where AUCAB, AUCA, AUCB, and AUCctl are the AUC values for animals in the combination group, the A group, the B group, and the control group, respectively. The standard error of the synergy score is computed based on the variation in the AUC values among the animals. […] If the P-value is above 0.05, then the combination is considered to be additive. If the P-value is below 0.05, and the synergy score is less than zero, then the combination is considered to be synergistic. […] Otherwise, the combination is classified as antagonistic.
# NCI-H69 xenograft model [2] = experiment: Combination of carboplatin and MLN4924 in NCI-H69 xenograft model
# Protocol: (§4) NCI-H69 or NCI-H82 small cell lung tumor fragments (30- to 40-mg) are implanted into the subcutaneous space in the area of the right flank of NCr nu/nu mice (7-10 weeks, Charles River Laboratories, Inc, Frederick Md. or Wilmington, Mass.) using a 12-gauge trocar.
# Carboplatin (CARBOplatin Injection, Hospira, Inc., Qilu Pharmaceutical Co., Ltd. Jinan, Shandong, China, and Teva Gry-Pharma GmbH, Ulm, Germany) is formulated in 0.9% saline and administered by IP injection once weekly (QW) at 50 mg/kg. The once weekly schedule is also described as every 7 days (Q7D).
# as §2, §3
# NCI-H69 xenograft model [3] = experiment: Combination of cisplatin and MLN4924 in NCI-H69 xenograft model
# Protocol: as §4, §2, §3
# [4] = tested on: NCI-H1650 xenograft model; experiment: Combination of docetaxel and MLN4924 in NCI-H1650 xenograft model
# Excerpt: NCI-H1650 (2×10^6) tumor cells in RPMI-1640 media are mixed with an equal volume of Matrigel (BD Biosciences) and aseptically injected into the subcutaneous space in the right dorsal flank of Balb/c Nude mice (age 4-6 weeks, Shanghai SINO-British SIPPR/BK Lab Animal Ltd.) using a 25-gauge needle.
# as §1, §2, §3
smiles,measurement,setting,value
"NS(=O)(=O)OC[C@@H]1C[C@@H](n2ccc3c(N[C@H]4CCc5ccccc54)ncnc32)C[C@@H]1O [MLN4924, ((1S,2S,4R)-4-(4-((1S)-2,3-dihydro-1H-inden-1-ylamino)-7H-pyrrolo[2,3-d]-pyrimidin-7-yl)-2-hydroxycyclopentyl)methyl sulfamate]",tumor growth during the treatment period (in words),"[1]; PHTX02B breast xenograft, FIG. 1, MLN4924 SC 60 mg/kg BID 5 days on/5 days off, docetaxel 5 mg/kg IV QW, single agents or their combination",inhibited tumor growth compared to the control vehicle group
same,average tumor volume day 21,[1]; 30 mg/kg MLN4924 BID 5 on/5 off SC,1110.9 mm^3
same,average tumor volume day 21,[1]; 30 mg/kg MLN4924 BID SC,894.4 mm^3
same,average tumor volume day 21,[1]; 60 mg/kg MLN4924 BID 5 on/5 off SC,532.2 mm^3
same,average tumor volume day 21,NCI-H69 xenograft model [2]; 60 mg/kg MLN4924 BID Q3D x 2/week SC,597.1 mm^3
same,average tumor volume day 21,NCI-H69 xenograft model [2]; 120 mg/kg MLN4924 BID Q3D x 2/week SC,415.2 mm^3
same,tumor growth during the treatment period (in words),"NCI-H69 xenograft model [2]; FIG. 3, MLN4924 SC 120 mg/kg BID Q3Dx2/week, carboplatin 50 mg/kg IP QW, single agents or their combination",inhibited tumor growth compared to the control vehicle group
same,average tumor volume day 22,NCI-H69 xenograft model [3]; 45 mg/kg MLN4924 BID Q3Dx2/week SC,438.5 mm^3
same,average tumor volume day 22,NCI-H69 xenograft model [3]; 60 mg/kg MLN4924 BID Q2Dx3/week SC,475.4 mm^3
same,average tumor volume day 21,[4]; 90 mg/kg MLN4924 Q2Dx3/week SC,776.8 mm^3
same,average tumor volume day 21,[4]; 120 mg/kg MLN4924 Q2Dx3/week SC,774.2 mm^3

# From US10786505B2, “Administration of NEDD8-activating enzyme inhibitor and chemotherapeutic agents” (Millennium Pharmaceuticals, Inc., priority 2013, dated 2020)
